Assay [1] concerns MCF-7 cells. As to the kind of experiment: Annexin-V/propidium iodide apoptosis analysis. The class given is cell-based, Human.
In assay [2] the test system is MCF-7 cells. As to the kind of experiment: Wound healing. The class given is cell-based, Human.
The test system of assay [3] is MCF-7 cells. As to the kind of experiment: Cell cycle analysis by flow cytometry. Type of assay: cell-based, Human. A general note: Flow cytometry measures light scatter and fluorescence of single cells or particles in a stream.
The test system of another assay is Vero cells. As to the kind of experiment: In vitro safety assay on normal Vero cells. The class given is cell-based.
The test system of a further assay is HepG2. As to the kind of experiment: MTT anti-proliferative assay against HepG2. The class given is cell-based. Conditions: Homo sapiens, HepG2, read-out: HepG2 IC50. For orientation: Tetrazolium assays rely on reduction of a dye to a coloured formazan, in cell work by metabolically active cells.
A further assay addresses VEGFR-2 (Homo sapiens, UniProt P35968). As to the kind of experiment: biochemical.
The test system of a further assay is MCF-7. As to the kind of experiment: MTT anti-proliferative assay against MCF-7. Type of assay: cell-based. The settings on record: Homo sapiens, MCF7, read-out: MCF-7 IC50.

Sequence of VEGFR-2 (P35968 20-1356): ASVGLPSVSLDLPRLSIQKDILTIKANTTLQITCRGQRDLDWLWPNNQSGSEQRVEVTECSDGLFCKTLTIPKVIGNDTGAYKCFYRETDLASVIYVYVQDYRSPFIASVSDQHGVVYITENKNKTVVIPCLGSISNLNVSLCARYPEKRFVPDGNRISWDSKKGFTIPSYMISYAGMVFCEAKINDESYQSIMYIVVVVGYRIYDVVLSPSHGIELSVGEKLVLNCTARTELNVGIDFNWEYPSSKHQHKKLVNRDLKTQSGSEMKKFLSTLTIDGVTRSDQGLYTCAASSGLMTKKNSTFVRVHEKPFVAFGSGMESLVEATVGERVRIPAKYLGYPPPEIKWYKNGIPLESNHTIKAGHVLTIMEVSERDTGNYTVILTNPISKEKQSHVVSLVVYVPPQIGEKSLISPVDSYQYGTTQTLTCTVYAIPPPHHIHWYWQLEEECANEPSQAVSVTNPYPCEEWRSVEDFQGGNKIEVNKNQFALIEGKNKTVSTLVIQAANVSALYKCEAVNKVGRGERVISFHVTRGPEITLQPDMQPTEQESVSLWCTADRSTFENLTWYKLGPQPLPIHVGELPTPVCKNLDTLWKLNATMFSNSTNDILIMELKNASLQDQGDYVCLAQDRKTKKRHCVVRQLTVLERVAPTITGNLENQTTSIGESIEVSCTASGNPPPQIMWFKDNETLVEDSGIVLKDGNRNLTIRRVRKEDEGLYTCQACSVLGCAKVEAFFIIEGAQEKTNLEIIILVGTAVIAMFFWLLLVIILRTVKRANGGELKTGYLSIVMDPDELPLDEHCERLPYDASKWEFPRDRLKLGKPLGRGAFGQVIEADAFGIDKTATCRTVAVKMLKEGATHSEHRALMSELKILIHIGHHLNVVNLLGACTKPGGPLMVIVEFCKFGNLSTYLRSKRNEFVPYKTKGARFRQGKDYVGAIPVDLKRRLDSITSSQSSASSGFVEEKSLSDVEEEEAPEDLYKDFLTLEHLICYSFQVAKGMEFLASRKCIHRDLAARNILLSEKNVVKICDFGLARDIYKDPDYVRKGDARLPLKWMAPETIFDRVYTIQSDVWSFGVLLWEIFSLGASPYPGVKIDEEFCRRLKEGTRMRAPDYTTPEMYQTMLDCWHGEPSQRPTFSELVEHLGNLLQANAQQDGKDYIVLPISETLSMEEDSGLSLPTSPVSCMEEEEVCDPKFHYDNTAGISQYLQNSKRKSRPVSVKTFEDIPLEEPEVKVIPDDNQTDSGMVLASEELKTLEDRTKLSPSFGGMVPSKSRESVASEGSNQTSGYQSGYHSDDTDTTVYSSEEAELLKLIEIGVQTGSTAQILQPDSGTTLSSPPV

The term IC50 denotes the concentration needed to halve the response being measured. `O=C(CN1C(=O)SC(=Cc2ccc(Cl)cc2Cl)C1=O)Nc1ccc(C(=O)NNC(=O)c2ccccc2)cc1` [Compound 22, N-(4-(2-benzoylhydrazine-1-carbonyl)phenyl)-2-(5-(2,4-dichlorobenzylidene)-2,4-dioxothiazolidin-3-yl)acetamide]: the “Increase of early apoptosis compared to untreated cells” value in the assay on MCF-7 cells [1] (MCF-7, 1.21 μM) is given as “about 76 times”. In addition, the “Increase of late apoptosis compared to untreated cells” value in the assay on MCF-7 cells [1] (MCF-7, 1.21 μM) is “about 90 fold”. The “Apoptosis Late (Right Top)” value with MCF-7 cells [1] (MCF-7, 1.21 μM, 72 h, control 0.15) worked out at 13.53%. The “Apoptosis Early (Right Bottom)” value with MCF-7 cells [1] (MCF-7, 1.21 μM, 72 h, control 0.29) is 22.15%. Besides, the “Necrosis (Left Top)” value in the assay with MCF-7 cells [1] (MCF-7, 72 h treatment, control 2.22) is on record as 5.34. In the assay with MCF-7 cells [2] (MCF-7, 48 h, untreated 16.58), the RM is given as 6.16 um. Moreover, the Wound closure in the assay on MCF-7 cells [2] (MCF-7, 48 h, untreated 81.62) worked out at 30.20 % um^2. Besides, in the assay with MCF-7 cells [2] (MCF-7, 48 h, untreated 795.83), the Area difference was found to be 295.83%. In addition, the “Reduction in scratch width” value with MCF-7 cells [2] (MCF-7, after 48 h, untreated 81.62 %) worked out at 30.20%. For the same compound, the “Scratch width at 48 h” value with MCF-7 cells [2] (MCF-7, untreated 178.24) was 682.93. Also, the “Scratch area at 48 h” value in the assay with MCF-7 cells [2] (MCF-7, untreated 179.17) was found to be 683.83. For the same compound, the “Scratch width at 24 h” value with MCF-7 cells [2] (MCF-7, untreated 644.43) is 904.16. Besides, the “Scratch area at 24 h” value in the assay on MCF-7 cells [2] (MCF-7, untreated 645.50) is listed as 905.17. Also, the “Scratch width at 0 h” value in the assay with MCF-7 cells [2] (MCF-7, untreated 974.11) worked out at 978.78. Besides, in the assay on MCF-7 cells [2] (MCF-7, untreated 975.00), the “Scratch area at 0 h” value is recorded as 979.67. Further, the “Cell cycle arrest phase” value with MCF-7 cells [3] (MCF-7, 1.21 μM) was “S phase”. The “Cell cycle distribution G2/M” value in the assay on MCF-7 cells [3] (MCF-7, 1.21 μM for 72 h, control 16.35) is 13.77%. Moreover, the “Cell cycle distribution S” value with MCF-7 cells [3] (MCF-7, 1.21 μM for 72 h, control 24.61) came out at 33.84%. In addition, the “Cell cycle distribution G0-G1” value in the assay on MCF-7 cells [3] (MCF-7, 1.21 μM for 72 h, control 59.04) is on record as 52.39%. Besides, the “Selectivity index HepG2” value in the assay with Vero cells (IC50 Vero divided by IC50 HepG2) is 1.95. Further, the “Selectivity index MCF-7” value in the assay with Vero cells (IC50 Vero divided by IC50 MCF-7) was determined as 3.28. Besides, the IC50 in the assay on HepG2 was determined as 2040 ± 60 nM; at VEGFR-2, 79 ± 3 nM; in the assay with MCF-7, 1210 ± 40 nM.

Regarding `O=C(CN1C(=O)SC(=Cc2ccc(Cl)cc2Cl)C1=O)Nc1ccc(C(=O)NNC(=O)c2ccccc2O)cc1` [Compound 24, 2-(5-(2,4-Dichlorobenzylidene)-2,4-dioxothiazolidin-3-yl)-N-(4-(2-(2-hydroxybenzoyl) hydrazine-1-carbonyl)phenyl)acetamide], the IC50 was determined as 600 ± 20 nM in the assay with HepG2, 203 ± 9 nM at VEGFR-2 and 650 ± 10 nM in the assay on MCF-7.

In the case of `O=C(CN1C(=O)SC(=Cc2ccc(Cl)cc2Cl)C1=O)Nc1ccc(C(=O)NNC(=O)c2cccc(Cl)c2)cc1` [Compound 23, N-(4-(2-(3-chlorobenzoyl)hydrazine-1-carbonyl)phenyl)-2-(5-(2,4-dichlorobenzylidene)-2,4-dioxothiazolidin-3-yl)acetamide], the IC50 with HepG2 stood at 1180 ± 10 nM; against VEGFR-2 it was 328 ± 14 nM; in the assay with MCF-7, 950 ± 10 nM.

As to `O=C(CN1C(=O)SC(=Cc2ccc(Cl)cc2Cl)C1=O)Nc1ccc(C(=O)Nc2cccc(Cl)c2)cc1` [Compound 21, N-(3-chlorophenyl)-4-(2-(5-(2,4-dichlorobenzylidene)-2,4-dioxothiazolidin-3-yl)acetamido)benzamide], the results for the IC50 in the assay with HepG2, against VEGFR-2 and in the assay with MCF-7 were 840 ± 10 nM, 1660 ± 70 nM and 680 ± 10 nM, respectively.

Regarding `O=C(CN1C(=O)SC(=Cc2ccccc2Cl)C1=O)Nc1ccc(C(=O)NNc2ccccc2)cc1` [Compound 18, 2-(5-(2-Chlorobenzylidene)-2,4-dioxothiazolidin-3-yl)-N-(4-(2-phenylhydrazine-1-carbonyl)phenyl)acetamide], the results for the IC50 with HepG2, against VEGFR-2 and in the assay with MCF-7 were 4700 ± 100 nM, 2660 ± 112 nM and 1760 ± 20 nM, respectively.

`O=C(CN1C(=O)SC(=Cc2ccccc2Cl)C1=O)Nc1ccc(C(=O)NNC(=O)c2cccc(Cl)c2)cc1` [Compound 19, N-(4-(2-(3-chlorobenzoyl)hydrazine-1-carbonyl)phenyl)-2-(5-(2-chlorobenzylidene)-2,4dioxothiazolidin-3-yl)acetamide]: the IC50 in the assay with HepG2 turned out to be 3060 ± 20 nM; on VEGFR-2, 323 ± 14 nM; in the assay with MCF-7, 2290 ± 190 nM.

For `O=C(CN1C(=O)SC(=Cc2ccccc2Cl)C1=O)Nc1ccc(C(=O)NNC(=O)c2ccccc2O)cc1` [Compound 20, 2-(5-(2-Chlorobenzylidene)-2,4-dioxothiazolidin-3-yl)-N-(4-(2-(2-hydroxybenzoyl) hydrazine-1-carbonyl)phenyl)acetamide], the IC50 with HepG2 is 1140 ± 30 nM; on VEGFR-2, 210 ± 9 nM; in the assay with MCF-7, 660 ± 30 nM.

The record behind these values is publication PMC10828660 (Heliyon, 2024).
